Laboratory results reported in patent publication US20150322033A1, “ANTIBACTERIAL AGENT” (priority 2012, published 2015).
Converted amounts (≈) assume the structure as drawn. Where two headings read alike, the source gives them in different places.

Tests used:
[1] = system: S. aureus Mu50 NR1-1; assay: MIC by broth microdilution, S. aureus Mu50 NR1-1; assay type: cell-based; details: Staphylococcus aureus, MU50NR11; Example 3, Table 13; read-out: MIC (mg/L) Mu50 NR1-1 (S80F, w)
Protocol: MIC values of the flavones and quinolone for the strains were measured in the same manners as those of Example 1, except that S. aureus Mu50 NR-1 was also used as Staphylococcus aureus in addition to S. aureus FDA209P and S. aureus Mu50, cell suspensions of the strains were prepared.
S. aureus Mu50 NR1-1 mentioned in Table 13 is a strain selected stepwise from the clinically isolated S. aureus Mu50 strain with deoxynybomycin, and it has a topoisomerase IV encoded by parC in which a […] (see, Hiramatsu K. et al., J. Antimicrob. Agents, 2012, June; 39 (6), 478-85).
In Table 13, the descriptions in the parentheses after the strains indicate the mutated amino acid residue and its position, as represented by (the mutation of topoisomerase IV resulting from the mutation of parCand the mutation of DNA gyrase resulting from the mutation of gyrA). The character “w” means wild-type, representing without mutation.

[2] = target: T1, GyrA(wt) + GyrB(wt) (Staphylococcus aureus, UniProt P20831); assay: DNA cleavage assay with GyrA(wt) and GyrB(wt); assay type: biochemical
T1 construct: made in house; host or cells: E. coli BL21(DE3)
Description: The gene sequence encoding the wild-type GyrA of Staphylococcus aureus (henceforth also referred to as “GyrA(wt)”) shown as SEQ ID NO: 1 was cloned into the plasmid pMAL-c2 (produced by New England Biolabs) (the resultant is henceforth also referred to as “pMAL-c2-gyrA”).
The gene sequence encoding the wild-type GyrB of Staphylococcus aureus (henceforth also referred to as “GyrB(wt)”) shown as SEQ ID NO: 2 was cloned into the plasmid pMAL-c2 (produced by New England Biolabs) (the resultant is henceforth also referred to as “pMAL-c2-gyrB”).
E. coliBL21(DE3) (produced by Invitrogen) was transformed with pMAL-c2-gyrA mentioned above, with pMAL-c2-gyrB mentioned above, or with pMAL-c2-SAGAmut84 containing a mutant gyrA encoding the amino acid sequence of GyrA(wt) in which serine residue at the 84th position from the amino terminus is substituted with a leucine residue (see, Hiramatsu K., Igarashi M., Morimoto Y, Baba T., Umekita M., Akamatsu Y., Int. J. Antimicrob. Agents, 2012 June; 39(6), 478-85). To the culture medium of the resulting transformed Escherichia coli, 1 mM […] (produced by Wako Pure Chemical Industries) was added to induce expression of maltose-binding GyrA(wt), maltose-binding GyrB(wt), or maltose-binding mutant GyrA(S84L), and the bacterium was cultured overnight at 25° C. After completion of the culture, the cells were collected, and suspended in a buffer (20 mM Tris-HCl (pH 8.0), 200 mM sodium chloride, 1 mM ethylenediaminetetraacetic acid (EDTA), 1 mM dithiothreitol (DTT)), a protein extracting reagent (10× BugBuster (registered trademark), produced by Novagen) in a volume of 1/10 of the volume of the buffer, and 2.5 μL/10 mL of the buffer of Benzonase (registered trademark) nuclease (produced by Novagen) were added, the mixture was left standing at 25° C. for 30 minutes, and the cells were disrupted and lysed to obtain a disrupted cell suspension containing the maltose-binding GyrA(wt), maltose-binding GyrB(wt), or maltose-binding mutant GyrA(S84L).
Then, each disrupted cell suspension mentioned above was added to a column filled with an amylose resin covalently bound with maltose (produced by Novagen). A buffer (20 mM Tris-HCl (pH 8.0), 200 mM sodium chloride, 1 mM EDTA) containing 10 mM maltose was added to the column to elute the maltose-binding GyrA(wt), maltose-binding GyrB(wt), and maltose-binding mutant GyrA(S84L).
To each eluate, 4 units/1 mL of the eluate of protease (Factor Xa, produced by Amersham) was added, and the mixture was left standing at 25° C. for 3 hours and 30 minutes to cleave the maltose-binding proteins, GyrA(wt), GyrB(wt), and mutant GyrA(S84L) from the maltose-binding GyrA(wt), maltose-binding GyrB(wt), and maltose-binding mutant GyrA(S84L).
Then, GyrA(wt), GyrB(wt), and mutant GyrA(S84L) were concentrated by using an ultrafiltration unit (YM-50 Filter Unit, produced by Millipore).
The concentrated GyrA(wt), GyrB(wt), and mutant GyrA(S84L) were each suspended in a buffer (35 mM Tris-HCl (pH 7.5), 24 mM potassium chloride, 6 mM magnesium chloride, 1.8 mM spermidine, 0.36 mg/mL bovine serum albumin, 5 mM DTT, 50 volume % glycerol) at a concentration of 1 μg/μL for GyrA(wt), 2 μg/μL for GyrB(wt), or 1 μg/μL for mutant GyrA(S84L).
A substrate plasmid DNA, pTWV228 (0.4 μg, produced by Takara Bio), and levofloxacin (LVFX) or apigenin were added to a buffer (35 mM Tris-HCl (pH 7.5), 24 mM potassium chloride, 6 mM magnesium chloride, 1.8 mM spermidine, 0.36 mg/mL bovine serum albumin, 5 mM DTT), and 0.15 μL of the enzyme solution of GyrA(wt) and […] of the enzyme solution of GyrB(wt) were added to the mixture to prepare a reaction mixture in a total volume of 20
Levofloxacin was added at a final concentration of 0, 0.5, 1, 2, 4, 8, 16, or 32 μg/mL.
The aforementioned reaction solution was left standing at 25° C. for 30 minutes to allow the reaction. […]

| SMILES | MIC [1] [mg/L] | Ratio of cleaved DNA (%) ([2]; 2 μg/mL, Table 14) | Ratio of substrate plasmid DNA (%) ([2]; 2 μg/mL, Table 14) | Ratio of cleaved DNA (%) ([2]; 4 μg/mL, Table 14) | Ratio of substrate plasmid DNA (%) ([2]; 4 μg/mL, Table 14) | Ratio of cleaved DNA (%) ([2]; 8 μg/mL, Table 14) | Ratio of substrate plasmid DNA (%) ([2]; 8 μg/mL, Table 14) | Ratio of cleaved DNA (%) ([2]; 16 μg/mL, Table 14) | Ratio of substrate plasmid DNA (%) ([2]; 16 μg/mL, Table 14) | Ratio of cleaved DNA (%) ([2]; 32 μg/mL, Table 14) | Ratio of substrate plasmid DNA (%) ([2]; 32 μg/mL, Table 14) | also measured |
| --- | --- | --- | --- | --- | --- | --- | --- | --- | --- | --- | --- | --- |
| C[C@H]1COc2c(N3CCN(C)CC3)c(F)cc3c(=O)c(C(=O)O)cn1c23 [Levofloxacin, levofloxacin, reference compound] | 1 (≈ 2.77 µM) | 58 | 42 | 61 | 39 | 64 | 36 | 70 | 30 | 67 | 33 | Ratio of cleaved DNA (%) ([2]; 0.5 μg/mL, Table 14): 32%; Ratio of substrate plasmid DNA (%) ([2]; 0.5 μg/mL, Table 14): 68%; Ratio of cleaved DNA (%) ([2]; 1 μg/mL, Table 14): 43%; Ratio of substrate plasmid DNA (%) ([2]; 1 μg/mL, Table 14): 57%; Ratio of cleaved DNA (%) ([2]; 4 μg/mL, Table 18): 73%; Ratio of substrate plasmid DNA (%) ([2]; 4 μg/mL, Table 18): 27%; IC50 ([2]; Example 4, Table 14, from ratio of cleaved DNA, read-out: IC50 (μg/mL) GyrA(wt) + GyrB(wt) (converted)): 5.53 µM |
| O=c1cc(-c2ccc(O)cc2)oc2cc(O)cc(O)c12 [No. 7, 4′,5,7-Trihydroxyflavone] | > 128 | 34 | 66 | 35 | 65 | 36 | 64 | 35 | 65 | 40 | 60 | Ratio of cleaved DNA (%) ([2]; 64 μg/mL, Table 14): 43%; Ratio of substrate plasmid DNA (%) ([2]; 64 μg/mL, Table 14): 57%; inhibitory activity against the wild-type DNA gyrase ([2]; FIG. 1 and 2): did not exhibit any inhibitory activity; IC50 ([2]; IC50 (μg/mL) GyrA(wt) + GyrB(wt), Example 4, Table 14, from ratio of cleaved DNA): > 474 µM; IC50 ([2]; IC50 GyrA(wt) and GyrB(wt), value in μM): > 474 µM |
